We go through five compounds from US20240324593A1, “OCTENIDINE COMPOSITIONS AND METHODS OF USE THEREOF” (Solventum Intellectual Properties Company, priority 2021, published 2024).

Series [1] in a line: Homogeneity of the composition / precipitation of octenidine. It counts as physicochemical. As to conditions: aqueous composition of octenidine hydrochloride with enhancer. As for the experimental part:
Water and the carnitine enhancer (i.e., carnitine inner salt, carnitine tartrate tartaric acid, carnitine fumarate, or acetyl carnitine) to a 20 mL glass vial mixed with magnetic stirring. Octenidine hydrochloride (10% solution in 50:50 weight percentage methanol:water) was further added in the amount described in the tables below. The pH was adjusted using 1N HCL or NaOH. Glycerol (3 g) and Natrosol 250 HHX […] were added to a flask and mixed with a DAC 400 FVZ SPEEDMIXER dual asymmetric centrifuge mixer (from Flacktek, Inc Landrum, S.C.) at 2500 rpm for 30 seconds. The glycerol and Natrosol 250 HHX (1.3 g) were combined with the enhancer solution in a 40 gms Flack Tec cup and mixed for an additional 30 seconds at 2500 rpm. The resulting solutions were homogenous. Refer to Examples 1-36 below (total weight percentages of octenidine hydrochloride and carnitine enhancer within composition are provided in tables; glycerol about 8-9 wt %; Natrosol 250 HHX about 2-3 wt %; and water makes up the difference). The solutions of Examples 1-27 below were subjected to antimicrobial testing according to the method below.
As described above, aqueous compositions including only octenidine hydrochloride and a respective enhancer were also prepared (i.e., absent glycerol and Natrosol 250 HHX), similar to the formulations described in Tables 1-5. All compositions formed homogenous solutions. […]

Series [2] is described as follows: Antimicrobial Efficiency Test, other antimicrobials with carnitine enhancers (Table 5). Format: cell-based. As to conditions: with versus without carnitine enhancer. On the procedure: Solutions of water, carnitine enhancer, and various other antimicrobials (i.e., chlorhexidine gluconate, benzalkonium chloride, polyhexamethylene biguanide) were prepared according to the procedure described immediately above.
Ex vivo porcine mucosa is transported to laboratory on ice pack and then trimmed and transferred in to RPMI 1640+2% PS media. A 5 mm biopsy punch is used to cut samples for assay. Remove most of the remaining muscle tissue with a fresh scalpel blade. Rinse 3× with 10±0.5 ml RPMI no ABX, no FCS. Transfer to incubator. Set up a 6 well plate with 1.5±0.2 mL RPMI (no ABX, no FCS) in each well and a 0.4 μm transwell insert. Transfer tissue explants mucosal side up to the insert (3 explants/well).
Passage overnight culture 1:10 into THB and return to shaking incubator for 2-3 hours. Remove 1 mL of passage culture from test tube and place in sterile microcentrifuge tube. Centrifuge (1±0.5 min at max speed) to pellet. Wash pellet with 1±0.1 mL RPMI, no ABX, no FCS. Centrifuge to pellet and re-suspend in 1±0.1 mL fresh RPMI. Check OD 600 to determine bacterial density and dilute as necessary to achieve ˜1E8 CFU/ml. Add bacteria: 2±1 μl per explant and return to incubator to infect 4±0.15 h.
Apply 50± μl of formulation per explant (mucosa side). Incubate at 37±2° C. for 24±0.5 h.
Remove tissue from transwells and place in appropriate neutralizer. Sonicate samples and vortex (30±5 second vortex, 2±0.1 minutes sonicate, and then 30±5 second vortex). Plate on Mannitol Salt Agar selective agar or Blood Agar at appropriate dilution and store dilutions at 4±2° C. The following day count plates and if TNTC, re-plate at higher dilution.

For series [3] the following is noted: background statement; cited from earlier work.
For series [4] the following is noted: background statement; cited from earlier work. The source holds these as a separate data set.
The conditions of series [5]: background statement; cited from earlier work. The source holds these as a separate data set.
The conditions of series [6]: background statement; cited from earlier work. This is another data set of the same source.

Where a name gives a salt, the structure may show the parent alone.

`C[N+](C)(C)C[C@H](O)CC(=O)[O-].O=C(O)/C=C/C(=O)O` [carnitine fumarate, L-Carnitine fumarate]: the “homogenous solution or precipitation of octenidine” value in series [1] is recorded as “resulted in the precipitation of octenidine”. Take `N=C(NCCCCCCNC(=N)NC(=N)Nc1ccc(Cl)cc1)NC(=N)Nc1ccc(Cl)cc1.O=C(O)[C@H](O)[C@@H](O)[C@H](O)[C@H](O)CO.O=C(O)[C@H](O)[C@@H](O)[C@H](O)[C@H](O)CO` [chlorhexidine gluconate]: the “antimicrobial activity in the presence of carnitine enhancers (in words)” value (“antimicrobial activity in the presence” for short) in series [2] is “performed better in the absence of carnitine enhancer”. Turning to `CCCCCCCCN=c1ccn(CCCCCCCCCCn2ccc(=NCCCCCCCC)cc2)cc1` [octenidine, octenidine hydrochloride], the contact dermatitis result in series [3] is listed as “does not cause contact dermatitis”. The “absorption through skin or mucous membranes” value in series [4] is reported as “not absorbed”. Further, the “antimicrobial efficacy relative to chlorhexidine” value in series [5] is 3-10 times. Further, in series [6], the “cytotoxicity relative to chlorhexidine” value was “less cytotoxic than chlorhexidine”. For benzalkonium chloride, in series [2], the “antimicrobial activity in the presence” value is given as “No effect”. Consider “polyhexamethylene biguanide [polyhexamethylene biguanidine]”, for which the “antimicrobial activity in the presence” value in series [2] is reported as “performed better in the absence of carnitine enhancer”.
